Experimental data published in patent publication US12565480B2, “Thiophene derivatives as xanthine oxidase inhibitors and application thereof” (Tonghua Dongbao Pharmaceutical Co., Ltd., priority 2019, dated 2026).

Legend:
[1] = 2 subjects; cited from earlier work
[2] = biological target: CYP2C19 (Homo sapiens (Human), UniProt P33261); assay: Cytochrome P450 isozyme inhibitory activity test, CYP2C19; type: in vitro ADME; settings: human liver microsomes; read-out: Cytochrome P450 isoenzyme IC50, CYP2C19
Chain of CYP2C19 (P33261 whole entry): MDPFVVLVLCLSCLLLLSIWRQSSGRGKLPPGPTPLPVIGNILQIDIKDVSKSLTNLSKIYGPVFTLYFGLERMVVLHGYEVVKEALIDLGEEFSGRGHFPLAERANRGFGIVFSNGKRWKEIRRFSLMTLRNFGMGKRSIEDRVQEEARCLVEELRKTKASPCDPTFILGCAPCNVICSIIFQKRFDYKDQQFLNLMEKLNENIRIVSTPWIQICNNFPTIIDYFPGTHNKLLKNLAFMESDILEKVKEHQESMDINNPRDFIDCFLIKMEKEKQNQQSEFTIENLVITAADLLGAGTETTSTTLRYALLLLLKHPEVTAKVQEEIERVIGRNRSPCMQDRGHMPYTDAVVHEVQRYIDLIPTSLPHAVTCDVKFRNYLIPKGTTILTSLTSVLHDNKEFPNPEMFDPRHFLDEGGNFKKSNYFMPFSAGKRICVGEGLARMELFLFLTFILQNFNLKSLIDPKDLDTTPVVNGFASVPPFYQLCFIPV
Procedure: (§1) Cytochrome P450 Isozyme Inhibitory Activity Test
(§2) The inhibitory activities of test compounds against different subtypes of human cytochrome P450 isoenzymes were determined.
(§3) Preparing test compounds, standard inhibitor (100×final concentration) and mixed substrate working solutions; Microsomes (purchased from Corning Inc) frozen in −80° C. freezer was taken out and thawed. 20 μL of the test compound and standard inhibitor solution were added to the corresponding wells, and at the same time 20 μL of the corresponding solvent was added to the no inhibitor control wells (NIC) and blank control wells (Blank); then 20 μL of mixed substrate solution was added to the corresponding wells, except for Blank wells (adding 20 μL of Phosphate Buffer (PB) to Blank wells); the human liver microsome solution was prepared (marking the date after use and putting back in the refrigerator immediately), then 158 μL of human liver microsome solution was immediately added to all wells; the above sample plate was pre-incubated in a 37° C. water bath, and then coenzyme factor (NADPH) solution was prepared; 10 minutes later, 20 μL of NADPH solution was added to all wells. […]

[3] = test system: Rat hepatocytes; assay: Hepatocytes metabolic stability (HMS), rat hepatocytes; type: in vitro ADME; settings: for Intrinsic hepatic clearance, Rat: CLint(liver)
Procedure: (§4) Assay Example 3: Hepatocytes Metabolic Stability (HMS) Study
(§5) To test the metabolic stability of the test sample in human and rat hepatocytes.
(§6) 2.1 Test compound (10 mM), control substance: 7-Ethoxycoumarin (30 mM), 7-Hydroxycoumarin (control substance, 30 mM)
(§7) 2.3 Buffer System: • Thawing medium: Williams' medium E containing 5% fetal bovine serum, 30% Percoll solution and other auxiliary materials • Incubation medium: Williams medium E (without phenol red) containing 2 mM L-glutamine and 25 mM hydroxyethylpiperazine ethane sulfonic acid. • Stop solution: 200 ng/mL of tosylbutyramide and labetalol in acetonitrile as internal standards. • Dilution solution: Ultrapure water. 3. Method of the Assay • 1) The exact amount of positive control compound was dissolved in dimethyl sulfoxide (DMSO) to give a 30 mM solution • 2) 10 mM test compound and 30 mM positive control compound were diluted to 1 mM and 3 mM with DMSO in 96-well plates. • 3) 1 mM test compound and 3 mM positive control compound was diluted into 100 μM and 300 μM quantification solutions with acetonitrile. • 4) The cryopreserved cells were thawed, dissociated and suspended in culture medium, and then diluted to 0.5×10^6 cells/mL with pre-warmed culture medium. • 5) 198 μL of pre-warmed cell suspension was added to a 96-well plate. • 6) 100 μL of stop solution (acetonitrile containing 200 ng/mL tosylbutyramide and 200 ng/mL labetalol as internal standard) was transferred in a set of pre-labeled 96-well plates. • 7) 2 μL of 100 μM test compound or 300 μM positive control quantitation solution was added in duplicate to each well of the 96-well plate. • 8) The TO samples were mixed to achieve uniform suspension over about 1 min, and then 20 μL of each sample was immediately transferred into wells containing 100 μL of ice-cold stop solution followed by mixing. • 9) All plates were incubated at 37° C. in 5% CO2 in a 95% humidified incubator, with constant shaking at approximately 600 rpm for reaction. • 10) At 15, 30, 60 and 90 min, samples were mixed, and then 20 μL of each sample was transferred to wells containing 100 μL of ice-cold stop solution at each time point and mixed. • 11) Medium control (MC) sample plates (labeled as TO-MC and T90-MC) were prepared at TO and T90 by adding the same components to each well except for the cell suspension. […]
(§8) The elimination rate constant k of the test compound and the control compound in hepatocytes was calculated by plotting the logarithm of the residual ratio vs time, and the half-life (T1/2) and in vitro intrinsic clearance rate (CLint) were obtained by using the elimination rate k. […]

[4] = biological target: CYP1A2 (Homo sapiens (Human), UniProt P05177); assay: Cytochrome P450 isozyme inhibitory activity test, CYP1A2; type: in vitro ADME; settings: human liver microsomes; read-out: Cytochrome P450 isoenzyme IC50, CYP1A2
Chain of CYP1A2 (P05177 whole entry): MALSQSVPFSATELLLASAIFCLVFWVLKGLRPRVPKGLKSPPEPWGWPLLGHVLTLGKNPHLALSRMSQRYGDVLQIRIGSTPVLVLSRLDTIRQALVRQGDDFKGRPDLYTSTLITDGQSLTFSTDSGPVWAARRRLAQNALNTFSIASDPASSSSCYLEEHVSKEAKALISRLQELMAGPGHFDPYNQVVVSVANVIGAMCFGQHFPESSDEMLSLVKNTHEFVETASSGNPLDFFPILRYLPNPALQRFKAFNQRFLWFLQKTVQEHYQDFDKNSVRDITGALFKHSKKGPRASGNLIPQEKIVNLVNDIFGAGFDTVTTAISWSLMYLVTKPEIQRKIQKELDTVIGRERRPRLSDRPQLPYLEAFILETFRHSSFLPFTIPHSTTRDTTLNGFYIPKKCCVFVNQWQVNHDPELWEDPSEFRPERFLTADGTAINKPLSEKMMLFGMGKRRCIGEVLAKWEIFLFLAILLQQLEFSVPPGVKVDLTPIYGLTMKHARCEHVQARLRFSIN
Procedure: as §1, §2, §3

[5] = test system: Human hepatocytes; assay: Hepatocytes metabolic stability (HMS), human hepatocytes; type: in vitro ADME; settings: for Intrinsic hepatic clearance, Human: CLint(liver)
Procedure: as §4, §5, §6, §7, §8

[6] = biological target: CYP3A4-M (Homo sapiens (Human), UniProt P08684); assay: Cytochrome P450 isozyme inhibitory activity test, CYP3A4-M; type: in vitro ADME; settings: human liver microsomes; read-out: Cytochrome P450 isoenzyme IC50, CYP3A4-M
Chain of CYP3A4-M (P08684 whole entry): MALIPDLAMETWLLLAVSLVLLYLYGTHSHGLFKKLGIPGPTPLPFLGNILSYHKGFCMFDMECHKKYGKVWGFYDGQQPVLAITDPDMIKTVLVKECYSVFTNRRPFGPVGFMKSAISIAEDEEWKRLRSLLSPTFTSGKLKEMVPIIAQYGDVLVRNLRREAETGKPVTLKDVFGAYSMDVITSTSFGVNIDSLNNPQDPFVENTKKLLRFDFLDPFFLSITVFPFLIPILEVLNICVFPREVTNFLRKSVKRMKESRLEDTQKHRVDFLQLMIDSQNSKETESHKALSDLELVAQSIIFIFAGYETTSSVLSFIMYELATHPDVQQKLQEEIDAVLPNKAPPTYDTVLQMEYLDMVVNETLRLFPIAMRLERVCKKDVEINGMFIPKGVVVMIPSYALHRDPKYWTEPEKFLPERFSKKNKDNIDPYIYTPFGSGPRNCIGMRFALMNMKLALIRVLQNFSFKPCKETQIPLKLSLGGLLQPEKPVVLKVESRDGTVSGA
Procedure: as §1, §2, §3

[7] = biological target: CYP2D6 (Homo sapiens (Human), UniProt P10635); assay: Cytochrome P450 isozyme inhibitory activity test, CYP2D6; type: in vitro ADME; settings: human liver microsomes; read-out: Cytochrome P450 isoenzyme IC50, CYP2D6
Chain of CYP2D6 (P10635 whole entry): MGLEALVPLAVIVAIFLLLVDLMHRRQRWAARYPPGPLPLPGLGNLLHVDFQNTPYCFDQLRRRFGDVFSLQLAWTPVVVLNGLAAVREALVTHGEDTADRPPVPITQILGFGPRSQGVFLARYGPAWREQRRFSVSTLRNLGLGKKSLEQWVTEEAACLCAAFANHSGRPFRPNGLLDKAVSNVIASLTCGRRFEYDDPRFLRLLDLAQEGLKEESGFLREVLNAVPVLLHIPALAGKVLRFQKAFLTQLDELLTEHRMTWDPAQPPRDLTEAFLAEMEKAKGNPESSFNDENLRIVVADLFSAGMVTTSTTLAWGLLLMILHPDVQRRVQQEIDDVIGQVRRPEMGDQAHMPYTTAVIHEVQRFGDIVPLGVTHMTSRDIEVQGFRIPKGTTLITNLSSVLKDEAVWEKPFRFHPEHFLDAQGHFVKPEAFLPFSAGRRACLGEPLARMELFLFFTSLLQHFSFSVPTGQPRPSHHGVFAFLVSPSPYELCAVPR
Procedure: as §1, §2, §3

[8] = biological target: CYP2C9 (Homo sapiens (Human), UniProt P11712); assay: Cytochrome P450 isozyme inhibitory activity test, CYP2C9; type: in vitro ADME; settings: human liver microsomes; read-out: Cytochrome P450 isoenzyme IC50, CYP2C9
Chain of CYP2C9 (P11712 whole entry): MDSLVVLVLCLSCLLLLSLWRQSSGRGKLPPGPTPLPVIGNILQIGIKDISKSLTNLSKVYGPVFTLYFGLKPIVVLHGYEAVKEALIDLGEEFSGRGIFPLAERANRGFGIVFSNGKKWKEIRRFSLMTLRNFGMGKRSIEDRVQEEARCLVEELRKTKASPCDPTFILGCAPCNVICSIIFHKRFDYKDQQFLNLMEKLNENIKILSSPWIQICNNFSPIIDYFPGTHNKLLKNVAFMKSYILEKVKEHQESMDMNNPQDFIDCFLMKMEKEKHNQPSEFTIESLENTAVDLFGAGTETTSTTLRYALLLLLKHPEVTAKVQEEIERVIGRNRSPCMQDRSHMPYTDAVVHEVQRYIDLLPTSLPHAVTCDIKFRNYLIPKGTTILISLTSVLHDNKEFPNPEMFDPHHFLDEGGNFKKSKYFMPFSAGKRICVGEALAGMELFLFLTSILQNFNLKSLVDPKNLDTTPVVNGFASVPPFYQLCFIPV
Procedure: as §1, §2, §3

[9] = test system: MDR1-MDCK II cells; settings: for Papp (AB) / Papp (BA): 2 μM, pH 7.4, […]; for Papp (AB): A to B; for Papp (BA): B to A
Procedure: Membrane Permeability MDR1 Test
MDR1-MDCK II cells are Madin-Darby canine kidney cells transfected with human MDR1 gene, which can stably express high P-gp. The aim of this study was to test the bidirectional permeability of compounds across the MDR1-MDCK II cell model and to assess whether they are transported by efflux.
Test compounds were diluted in transport buffer (HBSS, 10 mM Hepes with DMSO, pH 7.4) to a concentration of 2 μM (DMSO<1%) and applied on the apical or basolateral side of the cell monolayer. The compound to be tested was tested in duplicate in the direction of from A to B or from B to A, digoxin was tested at 10 μM in the direction of from A to B or from B to A, while nadolol and metoprolol were tested at 2 μM from A to B. Plates were incubated in a CO2 incubator at 37±1° C. in a saturated humidity of 5% CO2 for 2.5 hours without shaking. In addition, the efflux ratio of each compound was determined, and for the test and reference compounds quantitation was conducted. Analysis was carried out by LC/MS/MS according to the peak area ratio of analyte/IS. After the transport assay, the Lucifer Yellow exclusion assay was used to determine integrity of the cell monolayer. The buffer was removed from the apical and basolateral compartments, then 75 μL of 100 μM luciferin yellow was added to the transport buffer, and 250 μL of the transport buffer was added to the apical and basolateral compartments, respectively. The plate was incubated at 37° C., 5% CO2 and saturated humidity for 30 minutes without shaking. After 30 minutes of incubation, 20 μL of luciferin yellow sample was withdrawn from the apical, followed by the addition of 60 μL of transport buffer. An 80 μL luciferin yellow sample was then collected basolaterally.
The apparent permeability coefficient (Papp, cm/s), efflux rate and recovery rate were calculated using the following formulae.
[formula] dCr/dt is the cumulative concentration of the compound at the receiver end over unit time (μM/s); Vr is the volume of the receiver end solution (0.075 mL and 0.250 mL for the apical and basal ends, respectively); Ais the relative surface area (0.0804 cm^2) of the cell monolayer; C0 is the initial concentration (nM) of the test substance at the administration end or the peak area ratio of the reference substance.
[formula] C0 is the initial concentration (nM) of the test substance at the administration end or the peak area ratio of the reference substance; Va is the volume of the administration end (0.075 mL for the apical side and 0.250 mL for the basal side); Cd and Cr are the final concentration (nM) of the test substance at the administration end and the receiver end or the peak area ratio of the reference substance.

[10] = Pharmacokinetics in SD rats
Procedure: Pharmacokinetics of test compounds in SD rats
Sprague Dawley Rat (male, 180-350 g, 6-10 weeks old, Charles River Laboratories, Beijing)
Six male SD rats were divided into 2 groups. […] Whole blood was collected at 0 (the gavage group only), 0.083 (intravenous only), 0.25, 0.5, 1, 2, 4, 8 and 24 hours after administration. Whole blood was centrifuged at 3200 g at 4° C. for 10 min to obtain plasma.

[11] = high dose of 80 mg/day; cited from earlier work

N#Cc1cn(-c2ccc(C(=O)O)c(O)c2)c2ccccc12 [PF-06743649]
Side effects after administration in clinical phase I trial [1]: acute PF-06743649-induced renal injury side effects

N#Cc1sc(-c2ccc(C(=O)O)c(O)c2)c2c1CCC2 [Compound 3]
IC50 [2]: > 50 µM
Clearance in rat hepatocytes (in words) [3]: high clearance
Intrinsic hepatic clearance, Rat [3]: 1097.9 mL/min/kg
IC50 [4]: > 50 µM
Clearance in human hepatocytes (in words) [5]: moderate clearance
Intrinsic hepatic clearance, Human [5]: 48.2 mL/min/kg
IC50 [6]: > 50 µM
IC50 [7]: > 50 µM
IC50 [8]: 14.8 µM
Permeability (in words) [9]: high permeability
Papp (AB) [9]: 38.63 10^−6 cm/s
Papp (BA) [9]: 10.99 10^−6 cm/s

N#Cc1sc(-c2ccc(C(=O)O)c(O)c2)c2c1CCC(F)(F)C2 [Compound 2]
Pharmacokinetic properties (in words) [10]: good pharmacokinetic properties
AUC0-inf ([10]; 2.89 mpk Intravenous injection): 41.8 µM·h
C0 ([10]; 2.89 mpk Intravenous injection): 96.6 µM
Cl ([10]; 2.89 mpk Intravenous injection): 3.59 mL/min/kg
T1/2 ([10]; 2.89 mpk Intravenous injection): 3.74 h
Vdss ([10]; 2.89 mpk Intravenous injection): 0.32 L/kg
AUC0-inf ([10]; 8.58 mpk Oral): 86.6 µM·h
Cmax ([10]; 8.58 mpk Oral): 27.5 µM
T1/2 ([10]; 8.58 mpk Oral): 2.47 h
Tmax ([10]; 8.58 mpk Oral): 0.5 h
Bioavailability ([10]; 8.58 mpk Oral vs 2.89 mpk Intravenous injection): 62.1%
Oral bioavailability (in words) ([10]; oral): high oral bioavailability
IC50 [2]: > 50 µM
Clearance in rat hepatocytes (in words) [3]: high clearance
Intrinsic hepatic clearance, Rat [3]: 188.4 mL/min/kg
IC50 [4]: > 50 µM
Clearance in human hepatocytes (in words) [5]: moderate clearance
Intrinsic hepatic clearance, Human [5]: 31.8 mL/min/kg
IC50 [6]: > 50 µM
IC50 [7]: > 50 µM
IC50 [8]: 18.1 µM
Permeability (in words) [9]: high permeability
Papp (AB) [9]: 26.42 10^−6 cm/s
Papp (BA) [9]: 6.63 10^−6 cm/s

Cc1nc(-c2ccc(OCC(C)C)c(C#N)c2)sc1C(=O)O [febusteine]
Patients who do not achieve the expected goal of lowing uric acid [11]: 40% to 52
